For 86 compounds, IC50 results are on record in PubChem BioAssay AID2305 (GlaxoSmithKline (GSK), 2010).

The subject of this assay is P. falciparum 3D7 growth, pLDH absorbance. Description: P. falciparum 3D7 growth inhibition, dose response, strain 3D7 (AID 2305).

Usually IC50 stands for the concentration that gives 50% inhibition. A higher IC50 goes with weaker potency in that assay. Compound `COc1cc(C2=NN(S(=O)(=O)c3c(Cl)cc(Cl)cc3Cl)CCCC2)ccc1Cl` came in with a concentration for half-maximal inhibition (IC50) of 290 nM. In the case of `Cc1ccc(CN2CCC(Oc3cccc(NC(=O)c4ccc(C(F)(F)F)cc4)c3)CC2)cc1` it was 1020 nM; in that of `COc1ccc2nccc([C@@H](O)CN3CCC(NCCOc4ccc(F)cc4F)CC3)c2c1`, 140 nM. As to `CCCCCCC1(C)N=C(N)N=C(N)C1c1ccc(Cl)c(Cl)c1` (stereo unspecified), the IC50 came out at 130 nM.

`O=C1C2C(C(=O)N1c1ccccc1)[C@H]1S[C@@H]2c2c1ccc1ccccc21` (stereo partly specified) had an IC50 of 770 nM. In the case of `O=C(/C=C/c1ccc(Cl)cc1)NCCCCCN1CCC(c2c[nH]c3ccccc23)CC1` it was 840 nM; in that of `O=C(/C=C/c1ccc(Cl)c(Cl)c1)NC1CCC(N2CCC(c3c[nH]c4ccc(O)cc34)CC2)CC1` (stereo unspecified), 920 nM. Take `Nc1nc(N)c2c(ccc3c2ccn3Cc2ccc(OCc3ccccc3)cc2)n1`: the half-maximal inhibitory concentration (IC50) amounted to 930 nM.

`O=C(Nc1ccc(Cl)cc1)Nc1cccc(-c2ccc(-c3nc4ccc(F)cc4[nH]3)cc2)c1` yielded an IC50 of 50 nM. The figure for `CCN(CC)CCCC(C)Nc1cc(C=Cc2ccccc2Cl)nc2cc(Cl)ccc12` (stereo unspecified) is 800 nM; for `CC(Cc1ccc(NC(=O)c2ccc(NCCc3ccccc3)cc2)cc1)NCCc1cccc(Cl)c1` (stereo unspecified) it is 850 nM; for `CCCCNCc1ccc(-c2nc(CN(CCCn3ccnc3)C(=O)N[C@@H]3C[C@H]3c3ccccc3)cs2)cc1` it is 740 nM.

The compound `CC[C@H](C)CNC(=O)c1cncc(-c2ccc(CN3CCC(N4CCCC4)CC3)cc2)c1` came in with an IC50 of 970 nM. The figure for `O=[N+]([O-])c1ccc(CNCCCCCCNCc2ccc([N+](=O)[O-])c3ccccc23)c2ccccc12` is 790 nM; for `CC(C)(C)c1ccc(CN2CCC(CNC(=O)c3cc(-c4ccccc4C(F)(F)F)cs3)C2)cc1` (stereo unspecified) it is 1240 nM; for `CCCCCCn1ccc2c3c(N)nc(N)nc3ccc21` it is 150 nM. `CCn1cc2c3c(cc(C(=O)N[C@@H](Cc4ccccc4)[C@H](O)CNCc4cccc(OC)c4)cc31)N(C)S(=O)(=O)CC2` showed an IC50 of 670 nM. Consider `COc1cccc(CNc2ncc(-c3ccsc3)c(-c3nccs3)n2)c1`, for which the IC50 was determined as 420 nM.

Regarding `COc1cc2nc(Nc3ccc4c(cnn4Cc4ccccc4)c3)nc(Nc3ccc4c(cnn4Cc4ccccc4)c3)c2cc1OC`, the IC50 was found to be 190 nM. Compound `CCOC(=O)c1c(CSc2ccccc2)oc2cc(CN(C)C)c(O)c(Cl)c12` showed an IC50 of 660 nM. With `c1ccc(CNCc2cccc(-c3ccc(-c4nc5ccccc5[nH]4)cc3)c2)cc1`, the IC50 is 820 nM. `COc1cccc(CN2Cc3ccccc3OC3(CCN(Cc4c[nH]c5cnccc45)CC3)C2)c1` yielded an IC50 of 1300 nM. The figure for `CN(C)c1ccc(NC(=O)Nc2ccnc3ccc(Br)cc23)cc1` is 870 nM; for `C=CCn1c(=N)c(C(=O)NCc2ccc(F)cc2)cc2c(=O)n3cccc(C)c3nc21` it is 1170 nM; for `O=C(/C=C/c1ccc(C(F)(F)F)cc1)NCCCCCN1CCN(C(=O)Nc2ccc(F)c(Cl)c2)CC1` it is 1210 nM. In the case of `COc1cc(OC)cc(C(=O)Nc2nc(-c3ccccn3)cs2)c1` it was 560 nM. In the case of `Nc1[nH]c2ccccc2c(=O)c1-c1nc2ccccc2s1` it was 300 nM; in that of `Nc1n[nH]c(-c2ccccc2Nc2ccnc3cc(-c4nccs4)ccc23)n1`, 1120 nM. `O=C(/C=C/c1ccc(Cl)c(Cl)c1)N1CCN(C(=O)Nc2ccc(C(F)(F)F)cc2)CC1`: the IC50 was 670 nM.

As to `CN(C)Cc1ccc(-c2cc3c(-c4ccc(CN(C)C)cc4)ccnc3[nH]2)cc1`, the IC50 was determined as 890 nM.

In the case of `O=C(Cc1ccc(NC(=O)c2ccc(O)c(-c3ccc(Cl)c(Cl)c3)c2)cc1)NCc1cccc(C(F)(F)F)c1`, the IC50 was found to be 880 nM. The figure for `CCCCCCN1CCC(NCc2cccc(C#N)c2)CC1` is 780 nM; for `OCCN1CCN(Cc2ccc(-c3cccc(-c4nc5ccc(F)cc5[nH]4)c3)cc2)CC1` it is 610 nM; for `Cc1ccc(C)c2sc(N3CCN(C(=O)c4ccc([N+](=O)[O-])o4)CC3)nc12` it is 820 nM. The figure for `Cn1ccnc1CNC(=O)c1ccc(-c2cccc(-c3nc4ccc(C(F)(F)F)cc4[nH]3)c2)cc1` is 720 nM; for `CC(C)CNC(=S)N1CCCN(c2nc3ccc(Cl)cc3s2)CC1` it is 960 nM; for `Oc1c(Cl)cc(Nc2nccc(Nc3ccc(Oc4ccccc4)cc3)n2)cc1Cl` it is 790 nM.

As for `O=C(/C=C/c1ccc(Cl)c(Cl)c1)NCCCCCN1CCC(NC(=O)c2ccc(F)cc2)CC1`, the IC50 came to 710 nM. `O=C(c1cccs1)N(Cc1cccc(-c2ccc(CNCCc3ccccc3)cc2)c1)C1CCN(Cc2ccccc2)CC1` registered a 50% inhibitory concentration (IC50) of 860 nM.

`O=C(Nc1ccc(Cl)cc1)c1ccc(CN2CCCN(Cc3ccccc3)CC2)cc1` came in with an IC50 of 750 nM. The figure for `CCc1c(CCNCCCCCCNCCc2ccc(Br)cc2)ccc(OC)c1OC` is 230 nM.

`O=C(NCc1cccc(Cl)c1)c1ccc(CNC2CCN(Cc3ccccc3)CC2)cc1`: the IC50 is 880 nM. In the case of `CC(CNc1nc(NCC(c2ccccc2)c2ccccc2)c2[nH]cnc2n1)c1ccccc1` (stereo unspecified) it was 950 nM; in that of `COc1ccccc1CNC(=O)C(=O)Nc1c(-c2ccccc2)[nH]c2ccccc12`, 740 nM.

`c1cc(CNCCc2ccncc2)cc(-c2ccc(-c3nc4ccccc4[nH]3)s2)c1` registered an IC50 of 340 nM. Compound `CCC[C@@H]([C@@H](CC1CCCCC1)C(=O)N[C@H](C(=O)Nc1nccs1)C(C)(C)SCCOCCOCC)N(O)C=O` had a 50% inhibitory concentration (IC50) of 80 nM. In turn, `COc1ccc(NC(=O)c2ccc(Br)c(C)c2)cc1N1CCN(CCCc2c[nH]c3ccccc23)CC1` showed an IC50 of 380 nM.

Consider `CC(C)C(NC(=O)Cc1cccc2ccccc12)C(=O)Nc1cccc(C#N)c1` (stereo unspecified), for which the IC50 is 660 nM. Take `N#Cc1cnc2cc(-c3cnc(CNCCN4CCOCC4)s3)ccc2c1Nc1ccc(Oc2ccccc2)cc1`: the IC50 worked out at 730 nM. The compound `O=C1c2ccccc2-n2c1nc1ccccc1c2=O` came in with an IC50 of 860 nM. The figure for `CCOC(=O)c1ccc(COc2ccc(C)nc2)cc1` is 540 nM. In turn, `O=C(Nc1cccc(-c2cccc(-c3nc4ccc(C(F)(F)F)cc4[nH]3)c2)c1)Nc1ccc(F)c(F)c1F` showed an IC50 of 120 nM.

Compound `COc1ccc(Nc2nc(C)cc(NCc3ccc(-c4c(C)noc4C)cc3)n2)cc1` registered an IC50 of 840 nM. In the case of `CNc1ccc(CNCc2ccc(-c3ccc(-c4nc5ccc(C(F)(F)F)cc5[nH]4)s3)cc2)cc1` it was 180 nM; in that of `O=C(C=Cc1ccc(Cl)c(Cl)c1)NCCCCCN1CCC(CCCNC(=O)c2ccc3c(c2)OCO3)CC1`, 150 nM; in that of `CC(C)N1CCN(C(CN2CCN(CCCOc3cccc(F)c3)CC2)c2ccc(F)cc2)CC1` (stereo unspecified), 910 nM. In the case of `CC(C)c1ccc(OCC(O)CN(C)C(C)C(O)c2ccccc2)c(Br)c1` (stereo unspecified) it was 810 nM; in that of `COc1ccc(Cl)cc1N1CCN(CCCNC(=O)c2ccc(-c3nc4cc(Cl)c(C)cc4[nH]3)s2)CC1`, 780 nM. In the case of `COc1cc(C=CC(=O)N2CCN(Cc3cccc(C)c3)CC2)ccc1OCc1c(C)noc1C` it was 1030 nM; in that of `N[C@@H](CCNC1CCN(c2cccc(C(F)(F)F)c2)CC1)Cc1ccc(F)c(F)c1`, 1290 nM; in that of `Clc1ccc(OCc2ccccc2)c(Cc2ccc(-c3nc4ccncc4[nH]3)o2)c1`, 750 nM. For the compound `Fc1ccc2nc(Nc3nc(-c4ccccn4)cs3)sc2c1`, the IC50 is 560 nM.

Consider `COCCNCC(O)Cn1c2ccc(Cl)cc2c2cc(Cl)ccc21` (stereo unspecified), for which the IC50 was 50 nM.

`COCCNCc1ccc(-c2ccc(CNc3ccc4ncccc4c3)cc2)cc1` gave an IC50 of 1040 nM. `Cc1[nH]c2ccc(-c3ccccc3)cc2c(=O)c1Br`: the IC50 came to 160 nM. `FC(F)c1nc2ccccc2n1-c1nc(N2CCOCC2)nc(N2CCOCC2)n1` had a half-inhibitory concentration (IC50) of 760 nM. In the case of `CC(=O)c1ccccc1C(=O)N1CCOc2ccc(C(O)C(c3ccccc3)c3ccccc3)cc2C1` (stereo unspecified) it was 900 nM; in that of `CCn1cnc2c(N3CCCS3(=O)=O)cc(C(=O)N[C@@H](Cc3ccccc3)[C@H](O)CNC(C)(C)c3cccc(C(F)(F)F)c3)cc21`, 230 nM; in that of `Cc1cc(C2CCN(CCCCNC(=O)c3ccc(NC(=O)c4ccc(Cl)cc4)cc3)CC2)c(C)cc1OC(C)C`, 740 nM.

With `CC(NC(=O)c1ccc(O)c(-c2ccc(Cl)c(Cl)c2)c1)C(=O)NC1CCCCC1` (stereo unspecified), the IC50 came to 840 nM. With `N=c1ccn(CC(=NO)c2ccc(Cl)c(Cl)c2)cc1`, the half-maximal inhibitory concentration (IC50) is 940 nM. `Cc1ccc(C(=O)NC2CCN(CCNC(=O)Nc3cc(C)nc4ccccc34)CC2)cc1` gave a 50% inhibitory concentration (IC50) of 490 nM.

`CCCCc1ccc(-c2c(N)nc(N)nc2CC)cc1` showed an IC50 of 950 nM. The figure for `CN1CCCC1CNS(=O)(=O)c1ccc(C(=O)NCC2CC2)cc1` (stereo unspecified) is 170 nM; for `O=C(Nc1ccc(Cl)cc1)Nc1nc2ccc([N+](=O)[O-])cc2[nH]1` it is 800 nM; for `COc1ccc(CNC(=O)Nc2cc3cc(-c4ccc(CN5CCCC5)cc4)ccc3n3c(C)nnc23)cc1` it is 650 nM. `COc1cc(C)nc2ccc(NC(=O)Nc3cccc4ccccc34)cc12` gave an IC50 of 880 nM. Compound `CCc1ccc(C2CCN(CCCCNC(=O)c3ccc(-c4ccc(Cl)cc4)cc3)CC2)c(O)c1` gave an IC50 of 890 nM. In the case of `Cn1cnc(CCNC(=O)c2ccc(-c3cccc(-c4nc5ccc(C(F)(F)F)cc5[nH]4)c3)cc2)c1` it was 730 nM.

In turn, `Cc1cccc2[nH]c(-c3ccc(-c4ccc(CN5CCC(N)C5)cc4)s3)nc12` (stereo unspecified) returned an IC50 of 370 nM. The figure for `CCN(CC)CCNC(=O)c1ccc(Nc2ncc([N+](=O)[O-])c(Nc3ccccc3OC)n2)cc1` is 140 nM. In turn, `COC(=O)Cn1c(C2CCN(CC3CCN(C(=O)/C=C/c4ccc(Cl)c(Cl)c4)CC3)CC2)nc2ccccc21` showed an IC50 of 1200 nM. In the case of `C=C[C@]1(C)C[C@@H](OC(=O)NC(=O)CCCS(=O)(=O)c2nnc(C)s2)[C@]2(C)[C@H](C)CC[C@]3(CCC(=O)[C@H]32)[C@@H](C)[C@@H]1O` it was 30 nM; in that of `COc1cc(Cc2cnc(N)nc2N)cc(OCCCCCC(=O)O)c1OC`, 230 nM. The figure for `CC1CCN(CC[C@H]2CCCN2S(=O)(=O)c2cccc(NC(=O)c3ccc(-c4ccc(Cl)cc4)o3)c2)CC1` is 690 nM; for `O=C(Nc1cccc(CN2CCN(Cc3cccc(O)c3)CC2)c1)c1ccc(Cl)c(Cl)c1` it is 410 nM.
